Where two headings read alike, the source gives them in different places.

These results are taken from patent publication US20060025458A1, “Alkylammonium compounds as antifungal and antitrypanosomal agents” (University of Connecticut, priority 2004, published 2006).

The conditions of series [1]: cited from earlier work.
Another series deals with S. cerevisiae. Kind of series: Liquid growth inhibition assay of S. cerevisiae (OD600). It is filed as cell-based, Saccharomyces cerevisiae. As to conditions: for Inhibition of S. cerevisiae growth (in words): structure-activity comparison, Examples 2-4. The protocol: Strains and Growth Conditions: Wild-type (BY4741: Mata his3Δ1 leu2Δ0 met15Δ0 ura3Δ0) and mutant (hnm1Δ, psd1Δ, cki1Δ, pem1Δ, ept1Δ, cpt1Δ, eki1Δ, psd2Δ, pct1Δ, ect1Δ, pem2Δ) S. cerevisiae strains used in this study were purchased from Research Genetics (Invitrogen, USA). These strains were grown on YPD (1% yeast extract, 2% dextrose and 2% peptone) or synthetic complete medium (SD, 1.7% yeast nitrogen base, 5% ammonium sulfate and 2% dextrose). The Nigerian strain of P. falciparum was propagated in human red blood cells at 4% hematocrit by the method of Trager and Jensen (1976). Plate growth assays were performed by growing wild-type and mutant yeast strains in YPD to mid-log phase. Cultures were serially diluted 1:10 starting with a density of 3×10^7 cells/ml. The growth of cells was monitored by spotting 3 μl of each dilution onto solid medium in the absence or presence of 5 μM of G25.
Twenty-one analogs including first, second and third generation (E2a, E6, E9, E13, E24, F4, G2, G4, G5, G14, GI5, G25, H5, L1, L4, M34, M53, MS1, T3 and T4) compounds (provided by Dr. Henri Vial, City, Country) were tested (FIG. 4). The choice of the compounds was such that they represent all possible structural features introduced during the optimization process for enhancing antimalarial activity as determined using the combinatorial chemistry techniques.
The antimalarial drug G25 inhibits the growth of Saccharomyces cerevisiae. […] Growth inhibition was assessed by measuring the OD600 and comparing it to that of the wild-type strain grown under the same conditions in the absence of the compound. […] This IC50 value is in the range of the predicted intracellular concentration of G25 in P. falciparum due to the accumulative properties inside the infected erythrocytes.

In a further series the test system is C. albicans strain BWP17. In words: Growth inhibition of C. albicans in vitro. The class given is cell-based, Candida albicans. As to conditions: read-out: IC50, C. albicans proliferation. Here is the method: G15, E24 and C35 inhibited at higher concentrations (>10 μM).
In series [2] the test system is promastigote form of L. major. In words: Growth inhibition of Leishmania major promastigotes. It is filed as cell-based. The following applies: read-out: IC50 of choline analogs in Leishmania major, WT. The protocol:
For those drugs, IC50 values were determined.

The subject of series [3] is P. falciparum. The following applies: Ancelin and Vial, 1986; read-out: IC50, lethal to P. falciparum in vitro; cited from earlier work.
Series [4] relates to P. falciparum-infected erythrocytes. As to conditions: after 3 h incubation; cited from earlier work.
For series [5], the system named is P. falciparum. In words: P. falciparum growth in vitro (antimalarial activity). It is filed as cell-based, Plasmodium falciparum. The following applies: predicted by QSAR and confirmed experimentally; read-out: IC50, in vitro anti-malarial activity.
The test system of series [6] is hnm1Δ S. cerevisiae strain lacking the choline transporter gene HNM1. In words: [3H]-T16 transport in hnm1 deletion strain. The class given is cell-based, Saccharomyces cerevisiae. As to conditions: 4 min, 30° C. The protocol:
Uptake Assays: Yeast strains were grown in synthetic complete medium supplemented as required to maintain cell growth to an optical density of 0.55-0.65 at 600 nm. Cells were harvested by centrifugation at 3,200×g for 10 min at 4° C., washed twice in cold PBS and resuspended in nitrogen-free medium (SD without ammonium sulfate). […] After 3 min incubation at 30° C. with shaking, transport was immediately stopped by filtration through Whatman GF/C glass microfiber paper. The filters were washed three times with 5 ml ice-cold PBS, air dried, and analyzed in a scintillation counter. For time course uptake, 3-4×10^7 cells were incubated at 30° C. in 1 ml of nitrogen-free medium in the presence of 25 nM [^3H]-T16 (69 Ci/mmol) for different time periods (1, 2, 3, 4, 5, 7, 10 and 15 min) after which 5 ml of cold PBS was added to stop the reaction. Kinetic parameters were determined after 4 min of incubation at 30° C. in the presence of [^3H]-T16 at concentrations ranging from 25 nM to 75 μM (69 Ci - 23 mCi/mol). […] The filters were washed twice with 5 ml of cold PBS, air dried, and analyzed in a scintillation counter. The cellular accumulation ratio (CAR) was calculated as previously described for T16 and G25 (Biagini, et al., 2003; Wengelnik, et al., 2002).

A further series deals with wild-type S. cerevisiae. The protocol:
(§1) Uptake Assays: Yeast strains were grown in synthetic complete medium supplemented as required to maintain cell growth to an optical density of 0.55-0.65 at 600 nm. Cells were harvested by centrifugation at 3,200×g for 10 min at 4° C., washed twice in cold PBS and resuspended in nitrogen-free medium (SD without ammonium sulfate). […] After 3 min incubation at 30° C. with shaking, transport was immediately stopped by filtration through Whatman GF/C glass microfiber paper. The filters were washed three times with 5 ml ice-cold PBS, air dried, and analyzed in a scintillation counter. For time course uptake, 3-4×10^7 cells were incubated at 30° C. in 1 ml of nitrogen-free medium in the presence of 25 nM [^3H]-T16 (69 Ci/mmol) for different time periods (1, 2, 3, 4, 5, 7, 10 and 15 min) after which 5 ml of cold PBS was added to stop the reaction. Kinetic parameters were determined after 4 min of incubation at 30° C. in the presence of [^3H]-T16 at concentrations ranging from 25 nM to 75 μM (69 Ci - 23 mCi/mol). The samples were centrifuged at 4° C. for 10 min at 1,200×g, the supernatants were discarded and the cells were then resuspended in 5 ml of cold PBS. The reaction was terminated by filtering the cell suspension through GF/C membranes that were pretreated with 15 ml of 0.05% polyethyleneimine (PEI). The filters were washed twice with 5 ml of cold PBS, air dried, and analyzed in a scintillation counter. The cellular accumulation ratio (CAR) was calculated as previously described for T16 and G25 (Biagini, et al., 2003; Wengelnik, et al., 2002).

Series [7] deals with choline transport in the wild-type strain of S. cerevisiae. In words: [methyl-3H]-choline uptake in wild-type S. cerevisiae. It is filed as cell-based, Saccharomyces cerevisiae. The following applies: 20-fold excess over [methyl-3H]-choline. Here is the method:
as §1

On to Amphotericin B, for which the half-life result in series [1] (IV infusion) is “about 2 weeks”. Besides, in [1] (patients), the “renal impairment, share of patients” value was 80%.
In the case of `C[N+](C)(CCO)CCCCCCCCCCCCCCCC[N+](C)(C)CCO.[Br-].[Br-]` [H5], the “Inhibition of S. cerevisiae growth (in words)” value (from here on “Inhibition … (in words)”) with S. cerevisiae is recorded as “better efficacy”. Moreover, the IC50 in the series with C. albicans strain BWP17 was roughly 5 µM.
With `CCCCCCCCCCCC[N+](C)(C)CCO` [F4], the IC50 in series [2] is 4.1 µM.
Same read-out and setting: as for `CCCCCCCCCCCC[N+]1(C)CCCC1.[Br-]` [E24], the figure is 0.7 µM; as for `N=C(N)CCCCCCCCCCCCC(=N)N` [M34], 3.57 µM.
Take `C[N+](C)(C)CCCCCCCCCC[N+](C)(C)C` [DMA, decamethonium]: the IC50 with P. falciparum [3] was 1 µM.
Take `CCCCCCCCCCCCCCCCCC[N+](C)(C)C.[Cl-]` [E9]: the IC50 in series [2] was 0.11 µM; with S. cerevisiae (wild-type W303 and BY4741, 10^5 cells/ml, YPD, 30° C., 24 h, read-out: IC50, growth of S. cerevisiae) it was 0.25 to 0.5 µM; in the series on C. albicans strain BWP17, roughly 1 µM. Besides, the “Inhibition … (in words)” value with S. cerevisiae is “inhibited”.
Regarding `C[N+]1(C)CCOC(O)(c2ccc(-c3ccc(C4(O)C[N+](C)(C)CCO4)cc3)cc2)C1` (centres unmarked) [HC3, hemicholinium 3], the IC50 with P. falciparum [3] is 4 µM.
In the case of `CCCCCCCCCCCC[N+](C)(C)C.[Br-]` [E6], the IC50 in series [2] is 2.15 µM. Further, the “Inhibition … (in words)” value in the series with S. cerevisiae is listed as “not an effective drug”. Besides, the “IC50, growth of S. cerevisiae” value with S. cerevisiae (wild-type W303 and BY4741, 10^5 cells/ml, YPD, 30° C., 24 h) is recorded as “high μM range”.
Regarding `CCc1sc[n+](CCCCCCCCCCCC[n+]2csc(CC)c2C)c1C.[I-].[I-]` [T16, 1, 12-dodecanemethylene bis[4-methyl-5-ethylthiazolium]diiodide], the “cellular accumulation ratio (CAR)” value in series [4] was roughly 500. Besides, the IC50 with P. falciparum [5] is roughly 0.016 µM; in the series on S. cerevisiae (wild-type strain BY4741, 1×10^4 cells/ml, liquid medium, 30° C., 16 h, read-out: IC50, inhibition of yeast growth) it was roughly 4 µM. Besides, the Km in series [6] came to 7.45 ± 1.98 µM; with wild-type S. cerevisiae (read-out: apparent Km of transport, wild-type, 4 min, 30° C., Lineweaver-Burk) it was 5.05 ± 0.26 µM. In addition, in series [6], the Vmax of transport was 0.76±0.21 pmol/min/10^7 cells. Also, the “cellular accumulation ratio (CAR) in yeast” value in the series on wild-type S. cerevisiae was “less than 7”. Besides, the “time during which uptake was linear” value in the series with wild-type S. cerevisiae (wild-type, 30° C., 25 nM) turned out to be 12 min. The “maximum velocity Vmax of transport” value in the series with wild-type S. cerevisiae (wild-type, 4 min, 30° C.) is 0.98±0.48 pmol/min×10^7 cells. In addition, the “inhibition of choline transport” value in [7] was 26%.
Turning to `CCCCCCCCCCCC[N+](CCC)(CCC)CCC.[Br-]` [E13], the IC50 in series [2] came out at 0.35 µM. Further, in the series with S. cerevisiae, the “Inhibition … (in words)” value is on record as “no improvement”.
As for `CCCCCCCCCC[N+](C)(C)C` [DTMA, decyltrimethylammonium], the IC50 with P. falciparum [3] was 0.7 µM.

As a reminder, the Km is the substrate concentration at which the rate is half of its maximum.
